Values quoted from earlier work, collected in patent US10730918B2, “Trap 63” (STRAUMANN HOLDING AG, priority 2013, dated 2020).

B1: full length amelogenin: full length amelogenin, major constituent of the enamel matrix (protein, UniProt Q99217 1-191, looked up)
chain: MGTWILFACLLGAAFAMPLPPHPGHPGYINFSYEVLTPLKWYQSIRPPYPSYGYEPMGGWLHHQIIPVLSQQHPPTHTLQPHHHIPVVPAQQPVIPQQPMMPVPGQHSMTPIQHHQPNLPPPAQQPYQPQPVQPQPHQPMQPQPPVHPMQPLPPQPPLPPMFPMQPLPPMLPDLTLEAWPSTDKTKREEVD
modifications: full-length
notes: full length amelogenin, major constituent of the enamel matrix

Test system: cementoblasts
Conditions: Boabaid et al 2004

Molecule	effect on cell proliferation	number of cementoblasts in cell culture
LRAP: leucine-rich amelogenin polypeptide; SEQ ID NO: 4 identical to sequence in Boabaid et al 2004 (MPLPPHPGHPGYINFSYEVLTPLKWYQNMIRHPSLLPDLPLEAWPATDKTKREEVD; sus scrofa domesticus)	not to have any effect	decreased
B1	no reported effect	–
